# From patent US20070197509A1, “Compositions and methods for modulating gated ion channels” (PainCeptor Pharma Corporation, priority 2005, published 2007)
# Entries after “also recorded” stand apart in the source; their conditions may differ.
# Target: T1, hASIC3 (Homo sapiens, UniProt Q9UHC3)
# T1 sequence (Q9UHC3 1-531): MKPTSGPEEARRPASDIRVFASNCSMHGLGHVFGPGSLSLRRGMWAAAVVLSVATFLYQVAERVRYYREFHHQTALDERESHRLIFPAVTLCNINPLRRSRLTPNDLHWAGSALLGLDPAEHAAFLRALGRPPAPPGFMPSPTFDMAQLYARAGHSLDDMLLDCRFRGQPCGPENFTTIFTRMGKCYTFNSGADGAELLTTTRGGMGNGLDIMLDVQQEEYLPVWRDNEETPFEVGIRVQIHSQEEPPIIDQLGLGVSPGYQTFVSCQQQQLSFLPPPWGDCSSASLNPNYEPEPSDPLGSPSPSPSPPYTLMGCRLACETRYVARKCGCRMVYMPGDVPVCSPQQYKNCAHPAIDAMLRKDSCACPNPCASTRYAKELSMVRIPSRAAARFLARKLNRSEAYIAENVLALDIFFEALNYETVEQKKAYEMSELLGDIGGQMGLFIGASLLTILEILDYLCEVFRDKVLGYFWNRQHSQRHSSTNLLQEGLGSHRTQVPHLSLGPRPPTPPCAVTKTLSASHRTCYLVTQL
# Assay: Whole-cell patch clamp of acid-evoked currents in CHO cells transfected with hASIC3
# Assay type: cell-based
# Set-up: expressed in transfected cells
# Method: All experiments are performed at room temperature (20-25° C.) in voltage clamp using conventional whole cell patch clamp methods (Neher, E., et al. (1978) Pfluegers Arch 375:219-228).
# Coverslips with the cells are transferred to a 15 μl experimental chamber mounted on the stage of an inverted microscope (IMT-2, Olympus) supplied with Nomarski optics. Cells are continuously superfused with extracellular saline at a rate of 2.5 ml/min. After giga-seal formation, the whole cell configuration is attained by suction. The cells are held at a holding voltage of −60 mV and at the start of each experiment the current is continuously measured for 45 s to ensure a stable baseline. […] Current amplitudes are measured at the peak of the responses, and effect of the compounds is calculated as the amplitude at compound equilibrium divided by the amplitude of the current evoked by the pulse just before the compound was included. […]
# FIG. 3 compares the selectivity of Compound R for human ASIC1a versus human ASIC3, both stably transfected in CHO cells. […] FIG. 3C compares the dose-response relationship of Compound R on hASIC1a and hASIC3 [determined by measuring the area under the curve of the response (total charge transfer) and normalized to the control response].
smiles,measurement,setting,value
"Cc1cc(OC2CCN(Cc3ccccc3)CC2)c2ccccc2n1 [Compound R, 4-(1-benzyl-piperidin-4-yloxy)-2-methyl-quinoline]",effect on acid evoked hASIC3 current amplitude (FIG. 3B),"30 μM, CHO cells",failed to reduce the amplitude of the current; also recorded: failed to inhibit
same,Biological Data (IC50 uM) h3 (PC),"patch clamp (PC), Table A",inactive
